Measured values reported in patent US20210318318A1, “Kinase Activity In Tumors” (Institute For Cancer Research d/b/a The Research Institute …, priority 2018, published 2021).
“Also recorded” adds a separate entry of the source.

Experiments:
[1] = target: T1, MRCKA (Homo sapiens, UniProt Q5VT25); experiment: BDP5290 target profiling (in vitro kinase assays, MIB/MS proteomic analysis of drug binders); format: binding; design: endogenous in cells; host or cells: OVSAHO; details: doses <5 μM
Experimental: PCA plot of MIB-determined SILAC ratios.
(§1) Statistical kinases are identified using Students T-tests with FDR 0.05.
(§2) Lysates were then incubated with MIBs for 45 minutes at 4° C. (Medard et al., J. Proteome Res., 2015, 14, 1574-1586) and added to gravity flow columns. The MIB preparation protocol was subsequently followed excluding the reduction and alkylation steps. Following methanol/chloroform precipitation, the precipitated pellet was resuspended in 20 μL complete MIBs lysis buffer and 4 μL 6×LSB was added to each sample. Samples were boiled at 100° C. for 5 minutes and subjected to western blot analysis. For the selectivity assay analyzed via LC-MS/MS, 5 mg OVSAHO lysates were preincubated with the same drug concentrations and incubated with MIBs, and the MIB preparation protocol was followed.

[2] = test system: FAK1, MLC and Paxillin phosphorylation; FAK1 and CHEK1 protein levels; experiment: Western blot of signaling in inhibitor-treated HGSOC cells; format: cell-based, human; details: HGSOC cells, 0.5, 1 or 3 μM, 48 hours
Experimental: COV362 cells were treated with 0.5, 1 or 3 μM of A-674563 or SB-772077 for 48 hours and signaling monitored by western blot.
Samples were harvested in MIB lysis buffer, subjected to SDS-PAGE […] and transferred to PVDF membranes before western blotting with primary antibodies. For pMYPT and pMLC blots, cells were harvested in a buffer containing 1% (w/v) SDS, 50 mM Tris pH 7.5 supplemented with protease and phosphatase inhibitors buffer and were passed through QIAshredder columns (Qiagen, 79654), (Unbekandt et al., Cell Commun. Signal., 2014, 12, 54). For the list of primary antibodies used, see Table 4. Secondary HRP-anti-rabbit and HRP-anti-mouse were obtained from ThermoFisher Scientific. SuperSignal West Pico and Femto Chemiluminescent Substrates (Thermo) were used to visualize blots.

[3] = target: T2, AURKB (Homo sapiens, UniProt Q96GD4); experiment: BDP5290 target profiling (in vitro kinase assays, MIB/MS and MIB-bead selectivity profiling); format: binding
T2 construct: endogenous in cells; host or cells: OVCAR4 cells; OVSAHO and KURAMOCHI lysates
Experimental: as §1
(§3) MIB-elutions were then analyzed by western blot.
(§4) Kinome elutions were then analyzed using LC-MS/MS and changes in kinase binding quantified using label free quantitation.
as §2

[4] = target: T3, MRCKB (Homo sapiens, UniProt Q9Y5S2); experiment: as above; format: binding
T3 construct: endogenous in cells; host or cells: OVSAHO
Experimental: as §3, §4, §2

[5] = test system: HGSOC cells; experiment: Cell viability of HGSOC cell line panel (Cell Titer Glo); format: cell-based, human
Experimental: Cells were treated with increasing concentrations of PF-03758309 and cell viability assessed by Cell Titer Glo according to manufacturer's instructions. Data represent the mean of six replicates.
Cell viability was assessed by Cell Titer Glo according to manufacturing. Data represent the mean of six replicates.
For short-term growth assays, 3000-5000 cells were plated per well in 96-well plates and allowed to adhere and equilibrate overnight. Drug was added the following morning and after 120 hours of drug treatment, cell viability was assessed using the CellTiter-Glo Luminescent cell viability assay according to manufacturer (Promega). Students t tests were performed for statistical analyses and p values ≤0.05 were considered significant. For colony formation assays, cells were plated in 24-well dishes (3000-5000 cells per well) and incubated overnight before continuous drug treatment for 14 days, with drug and media replaced twice weekly. At the end of treatment, cells were rinsed with PBS and fixed with chilled methanol for 10 minutes at −20° C. Methanol was removed by aspiration, and cells were stained with 0.5% crystal violet in 20% methanol for 20 minutes at room temperature, washed with distilled water, and scanned.

[6] = target: T1, MRCKA; details: Unbekandt et al., 2014; cited from earlier work
[7] = cell lysates incubated with increasing doses for 30 minutes

T1 sequence (Q5VT25 whole entry): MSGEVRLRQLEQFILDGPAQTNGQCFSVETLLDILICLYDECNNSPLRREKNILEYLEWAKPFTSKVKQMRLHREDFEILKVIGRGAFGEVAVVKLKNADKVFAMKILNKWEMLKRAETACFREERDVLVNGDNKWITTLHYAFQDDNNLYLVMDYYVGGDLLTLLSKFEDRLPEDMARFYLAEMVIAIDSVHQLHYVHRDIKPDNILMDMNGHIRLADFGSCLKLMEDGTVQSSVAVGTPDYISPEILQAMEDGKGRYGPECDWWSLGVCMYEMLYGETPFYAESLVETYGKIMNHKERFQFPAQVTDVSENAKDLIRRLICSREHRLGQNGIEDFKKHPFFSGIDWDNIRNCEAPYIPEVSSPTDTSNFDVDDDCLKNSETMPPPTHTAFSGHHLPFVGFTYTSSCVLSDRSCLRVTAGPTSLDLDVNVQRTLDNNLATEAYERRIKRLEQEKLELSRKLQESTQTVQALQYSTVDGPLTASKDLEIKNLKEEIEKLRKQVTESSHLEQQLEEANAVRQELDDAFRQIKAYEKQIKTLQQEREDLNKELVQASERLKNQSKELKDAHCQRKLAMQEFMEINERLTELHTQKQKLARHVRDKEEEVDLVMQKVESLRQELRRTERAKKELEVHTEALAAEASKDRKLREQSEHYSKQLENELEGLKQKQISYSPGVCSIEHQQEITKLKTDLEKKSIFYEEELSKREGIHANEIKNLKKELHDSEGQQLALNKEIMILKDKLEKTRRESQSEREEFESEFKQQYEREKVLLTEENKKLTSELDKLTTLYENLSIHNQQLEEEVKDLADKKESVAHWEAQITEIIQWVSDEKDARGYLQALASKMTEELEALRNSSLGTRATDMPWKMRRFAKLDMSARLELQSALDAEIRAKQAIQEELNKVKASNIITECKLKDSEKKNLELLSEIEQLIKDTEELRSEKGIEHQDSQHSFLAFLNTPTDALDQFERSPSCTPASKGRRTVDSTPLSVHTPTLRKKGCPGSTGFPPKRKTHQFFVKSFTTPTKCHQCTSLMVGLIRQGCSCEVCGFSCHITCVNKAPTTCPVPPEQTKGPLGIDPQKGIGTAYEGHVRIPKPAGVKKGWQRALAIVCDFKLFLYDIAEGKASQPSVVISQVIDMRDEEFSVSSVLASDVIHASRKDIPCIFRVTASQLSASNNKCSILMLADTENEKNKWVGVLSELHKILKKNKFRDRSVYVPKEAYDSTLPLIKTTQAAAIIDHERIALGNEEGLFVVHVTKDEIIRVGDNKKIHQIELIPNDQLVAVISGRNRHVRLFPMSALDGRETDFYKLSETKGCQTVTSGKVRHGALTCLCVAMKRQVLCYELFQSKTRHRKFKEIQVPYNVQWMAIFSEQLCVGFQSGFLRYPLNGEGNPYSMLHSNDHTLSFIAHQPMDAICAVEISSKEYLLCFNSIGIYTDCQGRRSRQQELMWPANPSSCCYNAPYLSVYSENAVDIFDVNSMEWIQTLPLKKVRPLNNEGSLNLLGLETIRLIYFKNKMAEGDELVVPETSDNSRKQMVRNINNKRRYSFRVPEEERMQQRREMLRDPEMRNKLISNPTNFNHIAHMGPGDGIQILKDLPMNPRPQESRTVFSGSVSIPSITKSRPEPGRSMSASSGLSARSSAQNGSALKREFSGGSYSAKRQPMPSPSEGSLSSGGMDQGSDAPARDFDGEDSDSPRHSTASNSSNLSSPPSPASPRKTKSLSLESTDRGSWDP
T2 sequence (Q96GD4 whole entry): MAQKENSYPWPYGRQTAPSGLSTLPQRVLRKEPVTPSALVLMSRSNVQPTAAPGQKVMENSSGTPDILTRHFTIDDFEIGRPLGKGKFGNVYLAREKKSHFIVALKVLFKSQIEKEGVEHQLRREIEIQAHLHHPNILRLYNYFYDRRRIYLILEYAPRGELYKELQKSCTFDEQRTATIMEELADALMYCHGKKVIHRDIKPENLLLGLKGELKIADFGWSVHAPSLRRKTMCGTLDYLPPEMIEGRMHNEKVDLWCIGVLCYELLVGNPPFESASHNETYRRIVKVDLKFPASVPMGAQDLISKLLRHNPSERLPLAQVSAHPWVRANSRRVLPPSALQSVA
T3 sequence (Q9Y5S2 whole entry): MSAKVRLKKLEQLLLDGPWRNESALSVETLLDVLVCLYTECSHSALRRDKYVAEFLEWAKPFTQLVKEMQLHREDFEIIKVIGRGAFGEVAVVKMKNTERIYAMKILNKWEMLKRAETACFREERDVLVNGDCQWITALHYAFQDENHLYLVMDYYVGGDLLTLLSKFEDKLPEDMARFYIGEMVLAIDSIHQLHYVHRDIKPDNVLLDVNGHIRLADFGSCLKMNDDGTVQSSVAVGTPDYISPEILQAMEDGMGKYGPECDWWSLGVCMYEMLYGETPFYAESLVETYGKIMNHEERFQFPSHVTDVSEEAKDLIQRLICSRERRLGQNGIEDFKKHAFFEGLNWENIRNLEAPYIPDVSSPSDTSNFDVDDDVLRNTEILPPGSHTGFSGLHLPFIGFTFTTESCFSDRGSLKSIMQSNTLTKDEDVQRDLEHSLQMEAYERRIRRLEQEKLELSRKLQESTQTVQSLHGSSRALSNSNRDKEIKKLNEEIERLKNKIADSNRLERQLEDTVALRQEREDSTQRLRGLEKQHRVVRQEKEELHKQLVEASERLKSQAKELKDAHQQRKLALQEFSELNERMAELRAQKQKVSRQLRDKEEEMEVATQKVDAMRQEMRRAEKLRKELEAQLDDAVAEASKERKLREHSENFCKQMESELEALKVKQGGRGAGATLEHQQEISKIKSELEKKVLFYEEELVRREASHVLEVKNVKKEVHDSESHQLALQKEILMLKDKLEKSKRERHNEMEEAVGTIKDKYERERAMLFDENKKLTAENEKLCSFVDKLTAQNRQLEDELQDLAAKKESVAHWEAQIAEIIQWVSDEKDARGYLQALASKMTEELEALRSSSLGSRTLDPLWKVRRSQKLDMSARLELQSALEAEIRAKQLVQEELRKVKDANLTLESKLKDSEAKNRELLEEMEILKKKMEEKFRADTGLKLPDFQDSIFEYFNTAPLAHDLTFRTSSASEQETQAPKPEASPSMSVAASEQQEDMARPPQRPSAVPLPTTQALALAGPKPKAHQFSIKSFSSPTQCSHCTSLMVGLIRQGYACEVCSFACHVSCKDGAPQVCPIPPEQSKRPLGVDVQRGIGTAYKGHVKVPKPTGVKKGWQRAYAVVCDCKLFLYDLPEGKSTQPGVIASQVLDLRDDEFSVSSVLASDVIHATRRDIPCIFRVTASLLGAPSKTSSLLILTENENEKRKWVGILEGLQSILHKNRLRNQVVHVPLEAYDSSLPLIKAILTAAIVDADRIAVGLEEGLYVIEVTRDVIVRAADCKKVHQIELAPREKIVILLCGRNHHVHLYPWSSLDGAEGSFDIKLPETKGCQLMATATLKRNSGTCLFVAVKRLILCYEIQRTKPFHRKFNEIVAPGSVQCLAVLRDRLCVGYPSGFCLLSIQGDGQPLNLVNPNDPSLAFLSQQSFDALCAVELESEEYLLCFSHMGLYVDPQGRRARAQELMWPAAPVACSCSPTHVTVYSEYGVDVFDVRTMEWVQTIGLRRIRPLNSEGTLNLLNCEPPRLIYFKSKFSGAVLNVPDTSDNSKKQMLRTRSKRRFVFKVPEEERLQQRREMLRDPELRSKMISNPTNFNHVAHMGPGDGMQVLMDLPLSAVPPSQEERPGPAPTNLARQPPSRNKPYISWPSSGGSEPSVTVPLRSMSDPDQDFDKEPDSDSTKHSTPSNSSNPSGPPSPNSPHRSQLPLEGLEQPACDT

activity against primary target MRCKA in HGSOC cells [1]: little activity | elution of AURKB from MIB beads (western blot) [3, 7]: elute AURKB | off-target activity on AURKB in HGSOC cells ([3]; doses <5 μM): off-targets | elution of MRCKB from MIB beads (western blot) [4, 7]: not MRCKB | activity against primary target MRCKB in HGSOC cells ([4]; doses <5 μM): little activity
Compound: O=C(Nc1cn[nH]c1-c1ccccn1)c1nn(C2CCNCC2)cc1Cl [BDP5290]
pMLC, pMYPT1, pFAK or total FAK1 or CHEK1 levels [2]: did not reduce | potency in HGSOC cells ([5]; doses <5 μM): minimal potency | cell viability of HGSOC cells ([5]; increasing concentrations, Cell Titer Glo): inhibiting HGSOC cell viability at higher concentrations; also recorded: minimal effects | Ki [6]: 10 nM
